Assay results: BigSolDB 2.1

For `CCOC(=O)Cc1c(C(=O)OCC)sc(N(CC(=O)OCC)CC(=O)OCC)c1C#N`, which solubility (mole fraction) (in isopropanol, 283.15 K) is on record?
Its solubility (mole fraction) is 0.000243.

What about the solubility (mole fraction) (in isopropanol, 285.65 K) of the same compound?
Its solubility (mole fraction) is 0.000308.

What about the solubility (mole fraction) (in isopropanol, 288.15 K) of the same compound?
The solubility (mole fraction) was 0.000386.

And the solubility (mole fraction) (in isopropanol, 290.65 K)?
The solubility (mole fraction) was 0.000478.

What about the solubility (mole fraction) (in isopropanol, 293.15 K) of the same compound?
Its solubility (mole fraction) is 0.000592.

And the solubility (mole fraction) (in isopropanol, 295.65 K)?
The solubility (mole fraction) was 0.000736.

And the solubility (mole fraction) (in isopropanol, 298.15 K)?
The solubility (mole fraction) was 0.00091.

What about the solubility (mole fraction) (in isopropanol, 300.65 K) of the same compound?
Its solubility (mole fraction) is 0.00111.

And the solubility (mole fraction) (in isopropanol, 303.15 K)?
The solubility (mole fraction) was 0.00135.

What about the solubility (mole fraction) (in isopropanol, 305.65 K) of the same compound?
The solubility (mole fraction) was 0.00162.

And the solubility (mole fraction) (in isopropanol, 308.15 K)?
The solubility (mole fraction) was 0.00197.

What about the solubility (mole fraction) (in isopropanol, 310.65 K) of the same compound?
Its solubility (mole fraction) is 0.00236.

What about the solubility (mole fraction) (in isopropanol, 313.15 K) of the same compound?
Its solubility (mole fraction) is 0.00286.

And the solubility (mole fraction) (in isopropanol, 315.65 K)?
The solubility (mole fraction) was 0.00345.

And the solubility (mole fraction) (in isopropanol, 318.15 K)?
Its solubility (mole fraction) is 0.00413.

What about the solubility (mole fraction) (in isopropanol, 320.65 K) of the same compound?
Its solubility (mole fraction) is 0.00494.

What about the solubility (mole fraction) (in isopropanol, 323.15 K) of the same compound?
The solubility (mole fraction) was 0.00588.

What about the solubility (mole fraction) (in methanol, 283.15 K) of the same compound?
The solubility (mole fraction) was 0.0012.

What about the solubility (mole fraction) (in methanol, 285.65 K) of the same compound?
The solubility (mole fraction) was 0.00149.

What about the solubility (mole fraction) (in methanol, 288.15 K) of the same compound?
Its solubility (mole fraction) is 0.0018.

What about the solubility (mole fraction) (in methanol, 290.65 K) of the same compound?
Its solubility (mole fraction) is 0.0022.

What about the solubility (mole fraction) (in methanol, 293.15 K) of the same compound?
Its solubility (mole fraction) is 0.00265.

What about the solubility (mole fraction) (in methanol, 295.65 K) of the same compound?
The solubility (mole fraction) was 0.00326.

What about the solubility (mole fraction) (in methanol, 298.15 K) of the same compound?
Its solubility (mole fraction) is 0.00391.

What about the solubility (mole fraction) (in methanol, 300.65 K) of the same compound?
Its solubility (mole fraction) is 0.00464.

What about the solubility (mole fraction) (in methanol, 303.15 K) of the same compound?
The solubility (mole fraction) was 0.00556.

What about the solubility (mole fraction) (in methanol, 305.65 K) of the same compound?
Its solubility (mole fraction) is 0.00659.

What about the solubility (mole fraction) (in methanol, 308.15 K) of the same compound?
Its solubility (mole fraction) is 0.00781.

What about the solubility (mole fraction) (in methanol, 310.65 K) of the same compound?
Its solubility (mole fraction) is 0.00925.

What about the solubility (mole fraction) (in methanol, 313.15 K) of the same compound?
The solubility (mole fraction) was 0.0109.

And the solubility (mole fraction) (in methanol, 315.65 K)?
The solubility (mole fraction) was 0.0128.

What about the solubility (mole fraction) (in methanol, 318.15 K) of the same compound?
Its solubility (mole fraction) is 0.015.

What about the solubility (mole fraction) (in methanol, 320.65 K) of the same compound?
Its solubility (mole fraction) is 0.0174.

And the solubility (mole fraction) (in methanol, 323.15 K)?
The solubility (mole fraction) was 0.0198.

And the solubility (mole fraction) (in n-butanol, 283.15 K)?
The solubility (mole fraction) was 0.000391.

And the solubility (mole fraction) (in n-butanol, 285.65 K)?
Its solubility (mole fraction) is 0.000489.

And the solubility (mole fraction) (in n-butanol, 288.15 K)?
The solubility (mole fraction) was 0.000608.

What about the solubility (mole fraction) (in n-butanol, 290.65 K) of the same compound?
Its solubility (mole fraction) is 0.000753.

And the solubility (mole fraction) (in n-butanol, 293.15 K)?
The solubility (mole fraction) was 0.00094.

And the solubility (mole fraction) (in n-butanol, 295.65 K)?
Its solubility (mole fraction) is 0.00115.

And the solubility (mole fraction) (in n-butanol, 298.15 K)?
The solubility (mole fraction) was 0.0014.

What about the solubility (mole fraction) (in n-butanol, 300.65 K) of the same compound?
The solubility (mole fraction) was 0.00173.

And the solubility (mole fraction) (in n-butanol, 303.15 K)?
The solubility (mole fraction) was 0.00215.

What about the solubility (mole fraction) (in n-butanol, 305.65 K) of the same compound?
Its solubility (mole fraction) is 0.00259.

And the solubility (mole fraction) (in n-butanol, 308.15 K)?
Its solubility (mole fraction) is 0.00316.

What about the solubility (mole fraction) (in n-butanol, 310.65 K) of the same compound?
Its solubility (mole fraction) is 0.0039.

And the solubility (mole fraction) (in n-butanol, 313.15 K)?
The solubility (mole fraction) was 0.0047.

What about the solubility (mole fraction) (in n-butanol, 315.65 K) of the same compound?
The solubility (mole fraction) was 0.00577.

What about the solubility (mole fraction) (in n-butanol, 318.15 K) of the same compound?
The solubility (mole fraction) was 0.00696.

And the solubility (mole fraction) (in n-butanol, 320.65 K)?
Its solubility (mole fraction) is 0.00838.

What about the solubility (mole fraction) (in n-butanol, 323.15 K) of the same compound?
The solubility (mole fraction) was 0.0102.

What about the solubility (mole fraction) (in n-propanol, 283.15 K) of the same compound?
Its solubility (mole fraction) is 0.000617.

And the solubility (mole fraction) (in n-propanol, 285.65 K)?
Its solubility (mole fraction) is 0.000762.

What about the solubility (mole fraction) (in n-propanol, 288.15 K) of the same compound?
The solubility (mole fraction) was 0.000953.

What about the solubility (mole fraction) (in n-propanol, 290.65 K) of the same compound?
Its solubility (mole fraction) is 0.00118.

And the solubility (mole fraction) (in n-propanol, 293.15 K)?
The solubility (mole fraction) was 0.00146.

What about the solubility (mole fraction) (in n-propanol, 295.65 K) of the same compound?
The solubility (mole fraction) was 0.0018.

And the solubility (mole fraction) (in n-propanol, 298.15 K)?
The solubility (mole fraction) was 0.00219.

And the solubility (mole fraction) (in n-propanol, 300.65 K)?
Its solubility (mole fraction) is 0.00266.

What about the solubility (mole fraction) (in n-propanol, 303.15 K) of the same compound?
Its solubility (mole fraction) is 0.00327.

And the solubility (mole fraction) (in n-propanol, 305.65 K)?
Its solubility (mole fraction) is 0.00403.

And the solubility (mole fraction) (in n-propanol, 308.15 K)?
The solubility (mole fraction) was 0.00492.

And the solubility (mole fraction) (in n-propanol, 310.65 K)?
The solubility (mole fraction) was 0.006.

And the solubility (mole fraction) (in n-propanol, 313.15 K)?
Its solubility (mole fraction) is 0.00722.

What about the solubility (mole fraction) (in n-propanol, 315.65 K) of the same compound?
Its solubility (mole fraction) is 0.00868.

And the solubility (mole fraction) (in n-propanol, 318.15 K)?
The solubility (mole fraction) was 0.0104.

And the solubility (mole fraction) (in n-propanol, 320.65 K)?
Its solubility (mole fraction) is 0.0126.

What about the solubility (mole fraction) (in n-propanol, 323.15 K) of the same compound?
The solubility (mole fraction) was 0.015.

And the solubility (mole fraction) (in toluene, 283.15 K)?
The solubility (mole fraction) was 0.0122.

And the solubility (mole fraction) (in toluene, 285.65 K)?
Its solubility (mole fraction) is 0.014.

And the solubility (mole fraction) (in toluene, 288.15 K)?
The solubility (mole fraction) was 0.0162.

And the solubility (mole fraction) (in toluene, 290.65 K)?
Its solubility (mole fraction) is 0.0187.

And the solubility (mole fraction) (in toluene, 293.15 K)?
Its solubility (mole fraction) is 0.0216.

And the solubility (mole fraction) (in toluene, 295.65 K)?
Its solubility (mole fraction) is 0.0249.

And the solubility (mole fraction) (in toluene, 298.15 K)?
The solubility (mole fraction) was 0.0286.

And the solubility (mole fraction) (in toluene, 300.65 K)?
Its solubility (mole fraction) is 0.0328.

What about the solubility (mole fraction) (in toluene, 303.15 K) of the same compound?
Its solubility (mole fraction) is 0.0379.

What about the solubility (mole fraction) (in toluene, 305.65 K) of the same compound?
The solubility (mole fraction) was 0.0434.

And the solubility (mole fraction) (in toluene, 308.15 K)?
Its solubility (mole fraction) is 0.0498.

And the solubility (mole fraction) (in toluene, 310.65 K)?
The solubility (mole fraction) was 0.0567.

What about the solubility (mole fraction) (in toluene, 313.15 K) of the same compound?
The solubility (mole fraction) was 0.0647.

What about the solubility (mole fraction) (in toluene, 315.65 K) of the same compound?
The solubility (mole fraction) was 0.0737.

What about the solubility (mole fraction) (in toluene, 318.15 K) of the same compound?
Its solubility (mole fraction) is 0.0835.

And the solubility (mole fraction) (in toluene, 320.65 K)?
The solubility (mole fraction) was 0.0946.

And the solubility (mole fraction) (in toluene, 323.15 K)?
The solubility (mole fraction) was 0.107.
